In ChEMBL document CHEMBL4477252, “Optimization of microtubule affinity regulating kinase (MARK) inhibitors with improved physical properties” (Bioorg Med Chem Lett, 2016):

Columns and labels:
[1] = molecular target: Dual specificity tyrosine-phosphorylation-regulated kinase 1A (Homo sapiens, UniProt Q13627); test: Inhibition of full-length recombinant human GST-tagged DYRK1A expressed in baculovirus expression system by Z'-LYTE assay
[2] = molecular target: Tyrosine-protein kinase JAK1 (Homo sapiens, UniProt P23458); test: Inhibition of recombinant human GST-tagged cytoplasmic JAK1 (866 to 1154 residues) catalytic domain expressed in baculovirus expression system by Z'-LYTE assay
[3] = molecular target: Misshapen-like kinase 1 (Homo sapiens, UniProt Q8N4C8); test: Inhibition of recombinant human His-tagged MINK1 catalytic domain expressed in baculovirus expression system by Z'-LYTE assay
[4] = molecular target: RAC-gamma serine/threonine-protein kinase (Homo sapiens, UniProt Q9Y243); test: Inhibition of full-length recombinant human His-tagged AKT3 expressed in baculovirus expression system by Z'-LYTE assay
[5] = molecular target: T1, Tyrosine-protein kinase ZAP-70 (Homo sapiens, UniProt P43403); test: Inhibition of full-length recombinant human His-tagged cytoplasmic ZAP70 expressed in baculovirus expression system by Z'-LYTE assay
T1 sequence (P43403 whole entry): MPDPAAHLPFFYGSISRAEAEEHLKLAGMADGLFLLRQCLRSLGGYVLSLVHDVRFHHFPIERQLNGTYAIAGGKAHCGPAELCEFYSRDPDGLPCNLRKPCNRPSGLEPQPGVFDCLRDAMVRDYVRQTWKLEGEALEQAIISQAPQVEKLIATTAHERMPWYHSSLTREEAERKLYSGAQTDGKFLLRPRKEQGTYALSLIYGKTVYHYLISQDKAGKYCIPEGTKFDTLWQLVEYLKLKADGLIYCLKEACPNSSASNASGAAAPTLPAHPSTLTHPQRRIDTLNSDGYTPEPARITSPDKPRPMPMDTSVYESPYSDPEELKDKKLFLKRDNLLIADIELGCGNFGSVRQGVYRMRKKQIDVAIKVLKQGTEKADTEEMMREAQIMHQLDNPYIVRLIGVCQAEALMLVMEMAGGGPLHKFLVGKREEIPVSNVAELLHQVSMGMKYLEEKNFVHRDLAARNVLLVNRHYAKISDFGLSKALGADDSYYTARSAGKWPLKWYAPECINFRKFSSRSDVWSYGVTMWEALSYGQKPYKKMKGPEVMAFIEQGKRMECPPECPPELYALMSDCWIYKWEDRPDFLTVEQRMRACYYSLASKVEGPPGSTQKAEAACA

[6] = molecular target: T2, 3-phosphoinositide-dependent protein kinase 1 (Homo sapiens, UniProt O15530); test: Inhibition of full-length recombinant human His-tagged PDK1 expressed in baculovirus expression system by Z'-LYTE assay
T2 sequence (O15530 whole entry): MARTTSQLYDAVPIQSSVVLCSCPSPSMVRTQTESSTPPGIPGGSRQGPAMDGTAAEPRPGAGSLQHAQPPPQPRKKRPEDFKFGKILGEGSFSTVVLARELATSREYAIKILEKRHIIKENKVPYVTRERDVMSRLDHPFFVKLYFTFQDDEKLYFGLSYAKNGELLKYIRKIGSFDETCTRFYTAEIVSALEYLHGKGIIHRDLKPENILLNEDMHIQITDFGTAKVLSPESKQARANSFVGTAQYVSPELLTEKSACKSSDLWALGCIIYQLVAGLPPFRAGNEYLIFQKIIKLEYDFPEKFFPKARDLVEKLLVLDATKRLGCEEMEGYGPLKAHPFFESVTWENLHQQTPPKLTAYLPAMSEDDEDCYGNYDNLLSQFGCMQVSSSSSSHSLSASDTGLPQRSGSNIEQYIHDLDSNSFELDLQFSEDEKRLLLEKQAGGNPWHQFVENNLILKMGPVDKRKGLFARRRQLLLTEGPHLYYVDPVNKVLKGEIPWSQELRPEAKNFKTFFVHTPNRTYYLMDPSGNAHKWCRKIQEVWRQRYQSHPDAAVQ

[7] = molecular target: Proto-oncogene tyrosine-protein kinase Src (Homo sapiens, UniProt P12931); test: Inhibition of full-length recombinant human His-tagged SRC expressed in baculovirus expression system by Adapta assay
[8] = molecular target: Interleukin-1 receptor-associated kinase 1 (Homo sapiens, UniProt P51617); test: Inhibition of recombinant human GST-tagged IRAK1 (194 to 712 residues) catalytic domain expressed in baculovirus expression system by Adapta assay
[9] = molecular target: Rho-associated protein kinase 1 (Homo sapiens, UniProt Q13464); test: Inhibition of recombinant human GST-tagged ROCK1 catalytic domain expressed in baculovirus expression system by Z'-LYTE assay
[10] = molecular target: Ribosomal protein S6 kinase alpha-3 (Homo sapiens, UniProt P51812); test: Inhibition of full-length recombinant human His-tagged RPS6KA3 expressed in baculovirus expression system by Z'-LYTE assay
[11] = molecular target: RAC-beta serine/threonine-protein kinase (Homo sapiens, UniProt P31751); test: Inhibition of full-length recombinant human His-tagged AKT2 expressed in baculovirus expression system by Z'-LYTE assay
[12] = molecular target: T3, Serine/threonine-protein kinase Chk1 (Homo sapiens, UniProt O14757); test: Inhibition of full-length recombinant human His-tagged CHEK1 expressed in baculovirus expression system by Z'-LYTE assay
T3 sequence (O14757 whole entry): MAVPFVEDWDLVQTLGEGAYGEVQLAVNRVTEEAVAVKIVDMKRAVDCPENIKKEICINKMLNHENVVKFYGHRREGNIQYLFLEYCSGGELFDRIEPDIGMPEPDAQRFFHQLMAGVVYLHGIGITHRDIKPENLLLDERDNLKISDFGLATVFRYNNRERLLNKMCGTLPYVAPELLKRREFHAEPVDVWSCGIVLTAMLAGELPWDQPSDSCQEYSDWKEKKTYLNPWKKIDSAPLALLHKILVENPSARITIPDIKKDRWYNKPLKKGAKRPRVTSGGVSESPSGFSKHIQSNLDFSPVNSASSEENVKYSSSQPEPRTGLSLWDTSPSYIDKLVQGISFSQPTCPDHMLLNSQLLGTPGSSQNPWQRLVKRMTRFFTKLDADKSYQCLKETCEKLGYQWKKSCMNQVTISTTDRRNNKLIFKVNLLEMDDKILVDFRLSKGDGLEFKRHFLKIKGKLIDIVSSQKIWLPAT

[13] = molecular target: Casein kinase II subunit alpha (Homo sapiens, UniProt P68400); test: Inhibition of full-length recombinant human His-tagged CSNK2A1 expressed in baculovirus expression system by Z'-LYTE assay
[14] = molecular target: Non-receptor tyrosine-protein kinase TYK2 (Homo sapiens, UniProt P29597); test: Inhibition of recombinant human N-terminal GST-tagged cytoplasmic TYK2 (833 to 1187 residues) catalytic domain expressed in baculovirus expression system by Z'-LYTE assay
[15] = molecular target: MDR1 (ABCB1, P-glycoprotein) (Homo sapiens, UniProt P08183); test: Substrate activity at human MDR1 expressed in LLC-PK1 cells assessed as efflux ratio of permeability across basolateral to apical over apical to basolateral side at 5 uM; type: ADME, cell-based

Interleukin-1 receptor-associated kinase 1, sequence (P51617 whole entry, the tested form may be a part): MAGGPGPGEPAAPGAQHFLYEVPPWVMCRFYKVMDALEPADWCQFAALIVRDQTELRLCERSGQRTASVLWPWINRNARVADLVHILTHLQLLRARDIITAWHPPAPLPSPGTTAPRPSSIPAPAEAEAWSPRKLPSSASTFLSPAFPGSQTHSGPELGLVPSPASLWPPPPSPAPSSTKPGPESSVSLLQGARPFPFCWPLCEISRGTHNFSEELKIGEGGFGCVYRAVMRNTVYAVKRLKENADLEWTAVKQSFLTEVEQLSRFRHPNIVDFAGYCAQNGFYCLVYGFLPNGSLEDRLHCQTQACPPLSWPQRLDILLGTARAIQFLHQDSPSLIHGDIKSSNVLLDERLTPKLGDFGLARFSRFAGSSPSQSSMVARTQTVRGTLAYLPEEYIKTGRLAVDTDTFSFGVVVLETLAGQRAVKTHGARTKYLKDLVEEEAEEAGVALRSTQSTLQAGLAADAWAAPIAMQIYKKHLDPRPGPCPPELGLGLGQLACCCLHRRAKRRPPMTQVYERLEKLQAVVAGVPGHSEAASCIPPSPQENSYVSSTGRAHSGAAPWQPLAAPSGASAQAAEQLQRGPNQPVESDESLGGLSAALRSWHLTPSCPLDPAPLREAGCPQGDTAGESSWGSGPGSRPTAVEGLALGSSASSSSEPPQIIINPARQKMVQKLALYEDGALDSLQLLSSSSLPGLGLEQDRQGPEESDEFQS
Misshapen-like kinase 1, sequence (Q8N4C8 whole entry, the tested form may be a part): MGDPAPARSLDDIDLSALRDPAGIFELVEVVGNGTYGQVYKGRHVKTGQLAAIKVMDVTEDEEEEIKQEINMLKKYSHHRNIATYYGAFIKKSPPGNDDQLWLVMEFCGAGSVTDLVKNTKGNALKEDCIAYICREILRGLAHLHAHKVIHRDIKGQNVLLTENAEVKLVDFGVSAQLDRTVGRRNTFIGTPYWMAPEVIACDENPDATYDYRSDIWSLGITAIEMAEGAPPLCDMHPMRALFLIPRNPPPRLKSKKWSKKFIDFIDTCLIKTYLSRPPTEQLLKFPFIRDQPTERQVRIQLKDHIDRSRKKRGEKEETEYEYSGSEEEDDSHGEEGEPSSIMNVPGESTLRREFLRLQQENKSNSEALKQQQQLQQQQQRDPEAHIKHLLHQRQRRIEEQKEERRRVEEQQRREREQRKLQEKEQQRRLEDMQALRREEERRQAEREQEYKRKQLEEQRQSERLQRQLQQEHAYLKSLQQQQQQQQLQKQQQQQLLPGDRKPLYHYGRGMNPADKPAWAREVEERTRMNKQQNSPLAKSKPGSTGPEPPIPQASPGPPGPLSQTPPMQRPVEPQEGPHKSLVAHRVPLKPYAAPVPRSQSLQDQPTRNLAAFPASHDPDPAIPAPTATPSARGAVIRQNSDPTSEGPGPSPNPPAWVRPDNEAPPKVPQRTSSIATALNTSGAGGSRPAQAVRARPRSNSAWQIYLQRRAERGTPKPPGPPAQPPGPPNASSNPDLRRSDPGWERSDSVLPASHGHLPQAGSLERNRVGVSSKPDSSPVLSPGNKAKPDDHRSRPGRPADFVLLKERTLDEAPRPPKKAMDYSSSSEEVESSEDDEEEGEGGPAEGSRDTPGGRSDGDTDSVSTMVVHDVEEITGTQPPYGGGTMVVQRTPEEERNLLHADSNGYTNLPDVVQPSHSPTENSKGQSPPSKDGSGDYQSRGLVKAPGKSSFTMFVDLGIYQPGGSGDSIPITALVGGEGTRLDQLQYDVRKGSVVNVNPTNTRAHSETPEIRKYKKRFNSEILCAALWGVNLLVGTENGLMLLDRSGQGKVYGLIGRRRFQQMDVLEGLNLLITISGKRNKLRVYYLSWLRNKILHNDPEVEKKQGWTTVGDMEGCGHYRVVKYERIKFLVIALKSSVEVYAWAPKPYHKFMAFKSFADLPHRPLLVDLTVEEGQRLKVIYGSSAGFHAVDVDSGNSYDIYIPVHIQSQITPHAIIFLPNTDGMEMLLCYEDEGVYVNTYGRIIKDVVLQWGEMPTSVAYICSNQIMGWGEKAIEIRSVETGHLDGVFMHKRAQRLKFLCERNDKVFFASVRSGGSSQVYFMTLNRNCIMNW
Casein kinase II subunit alpha, sequence (P68400 whole entry, the tested form may be a part): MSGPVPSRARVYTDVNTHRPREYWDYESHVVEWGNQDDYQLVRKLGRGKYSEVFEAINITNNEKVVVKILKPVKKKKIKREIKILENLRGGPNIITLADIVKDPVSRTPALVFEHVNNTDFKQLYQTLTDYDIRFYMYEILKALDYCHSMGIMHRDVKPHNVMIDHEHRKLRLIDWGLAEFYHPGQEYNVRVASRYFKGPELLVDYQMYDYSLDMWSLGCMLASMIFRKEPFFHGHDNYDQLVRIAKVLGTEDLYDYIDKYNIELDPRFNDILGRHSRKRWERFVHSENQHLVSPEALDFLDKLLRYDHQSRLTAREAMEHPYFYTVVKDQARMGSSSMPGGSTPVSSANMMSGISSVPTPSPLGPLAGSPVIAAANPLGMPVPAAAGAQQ
Rho-associated protein kinase 1, sequence (Q13464 whole entry, the tested form may be a part): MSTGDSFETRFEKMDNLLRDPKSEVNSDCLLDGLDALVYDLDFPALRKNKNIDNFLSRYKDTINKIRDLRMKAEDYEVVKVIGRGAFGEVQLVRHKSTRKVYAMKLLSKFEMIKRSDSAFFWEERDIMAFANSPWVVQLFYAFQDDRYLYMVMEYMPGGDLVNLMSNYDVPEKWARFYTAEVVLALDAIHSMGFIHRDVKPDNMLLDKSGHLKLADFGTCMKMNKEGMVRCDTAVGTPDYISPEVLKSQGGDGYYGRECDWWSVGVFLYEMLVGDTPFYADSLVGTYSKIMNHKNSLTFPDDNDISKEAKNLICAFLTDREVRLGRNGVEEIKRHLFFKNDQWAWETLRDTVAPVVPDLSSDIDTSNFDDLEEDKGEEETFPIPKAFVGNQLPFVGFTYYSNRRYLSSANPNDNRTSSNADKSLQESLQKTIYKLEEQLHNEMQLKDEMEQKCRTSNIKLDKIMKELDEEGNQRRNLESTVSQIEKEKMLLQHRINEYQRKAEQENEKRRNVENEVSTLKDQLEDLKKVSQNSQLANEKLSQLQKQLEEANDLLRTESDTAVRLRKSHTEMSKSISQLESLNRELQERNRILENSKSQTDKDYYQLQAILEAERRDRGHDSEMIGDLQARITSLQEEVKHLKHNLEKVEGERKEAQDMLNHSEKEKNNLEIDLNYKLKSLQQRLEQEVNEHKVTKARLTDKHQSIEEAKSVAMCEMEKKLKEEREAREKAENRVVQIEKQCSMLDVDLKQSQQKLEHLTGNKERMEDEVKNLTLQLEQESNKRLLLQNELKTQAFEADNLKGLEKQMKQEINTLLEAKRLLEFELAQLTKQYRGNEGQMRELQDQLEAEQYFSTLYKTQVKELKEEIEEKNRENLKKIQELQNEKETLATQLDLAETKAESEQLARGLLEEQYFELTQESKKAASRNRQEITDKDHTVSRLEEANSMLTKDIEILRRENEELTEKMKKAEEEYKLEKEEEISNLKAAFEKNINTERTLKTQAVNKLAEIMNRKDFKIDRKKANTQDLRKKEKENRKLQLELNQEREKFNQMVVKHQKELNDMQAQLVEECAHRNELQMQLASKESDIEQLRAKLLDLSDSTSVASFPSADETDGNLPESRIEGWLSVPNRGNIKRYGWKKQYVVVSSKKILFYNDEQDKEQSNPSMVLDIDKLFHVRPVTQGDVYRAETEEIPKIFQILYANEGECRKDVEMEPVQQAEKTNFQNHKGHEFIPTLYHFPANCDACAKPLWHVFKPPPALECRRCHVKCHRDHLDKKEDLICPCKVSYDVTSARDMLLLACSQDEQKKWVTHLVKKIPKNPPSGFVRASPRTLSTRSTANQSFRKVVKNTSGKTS
Ribosomal protein S6 kinase alpha-3, sequence (P51812 whole entry): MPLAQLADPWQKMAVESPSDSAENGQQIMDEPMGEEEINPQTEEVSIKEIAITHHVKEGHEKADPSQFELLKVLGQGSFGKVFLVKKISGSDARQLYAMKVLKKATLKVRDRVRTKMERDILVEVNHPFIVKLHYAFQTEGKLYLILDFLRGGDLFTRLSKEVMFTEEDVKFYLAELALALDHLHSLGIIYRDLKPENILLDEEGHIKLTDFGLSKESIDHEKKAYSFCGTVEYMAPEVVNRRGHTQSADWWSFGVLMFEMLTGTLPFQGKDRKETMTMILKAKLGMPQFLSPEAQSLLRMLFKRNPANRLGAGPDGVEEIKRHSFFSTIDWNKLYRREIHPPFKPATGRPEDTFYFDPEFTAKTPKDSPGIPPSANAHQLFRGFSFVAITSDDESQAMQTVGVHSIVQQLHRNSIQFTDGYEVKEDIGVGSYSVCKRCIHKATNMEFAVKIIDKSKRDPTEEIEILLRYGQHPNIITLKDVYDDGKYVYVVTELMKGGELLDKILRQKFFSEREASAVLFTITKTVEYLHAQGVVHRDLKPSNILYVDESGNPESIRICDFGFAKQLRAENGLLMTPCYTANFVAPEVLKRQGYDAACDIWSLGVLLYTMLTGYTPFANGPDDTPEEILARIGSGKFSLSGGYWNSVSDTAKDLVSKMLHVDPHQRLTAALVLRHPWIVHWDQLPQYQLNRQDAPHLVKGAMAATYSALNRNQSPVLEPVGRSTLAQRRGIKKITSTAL
Proto-oncogene tyrosine-protein kinase Src, sequence (P12931 2-536 limits assumed): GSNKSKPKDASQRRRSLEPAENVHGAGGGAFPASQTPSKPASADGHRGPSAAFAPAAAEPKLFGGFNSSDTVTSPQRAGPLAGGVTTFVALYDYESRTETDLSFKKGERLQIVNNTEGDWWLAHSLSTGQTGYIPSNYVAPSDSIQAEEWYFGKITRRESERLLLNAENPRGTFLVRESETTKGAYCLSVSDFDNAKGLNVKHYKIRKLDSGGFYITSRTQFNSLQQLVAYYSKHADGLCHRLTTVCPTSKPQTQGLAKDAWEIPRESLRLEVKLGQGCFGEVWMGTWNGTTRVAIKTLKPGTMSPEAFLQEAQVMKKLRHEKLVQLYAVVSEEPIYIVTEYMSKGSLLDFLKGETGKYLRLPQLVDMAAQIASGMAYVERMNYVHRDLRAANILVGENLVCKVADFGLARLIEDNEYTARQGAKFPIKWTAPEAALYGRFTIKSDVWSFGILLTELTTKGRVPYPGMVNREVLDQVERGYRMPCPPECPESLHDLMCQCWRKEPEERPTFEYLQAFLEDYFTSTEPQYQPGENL

SMILES	IC50 [1] [nM]	IC50 [2] [nM]	IC50 [3] [nM]	IC50 [4] [nM]	IC50 [5] [nM]	IC50 [6] [nM]	IC50 [7] [nM]	IC50 [8] [nM]	IC50 [9] [nM]	IC50 [10] [nM]	IC50 [11] [nM]	IC50 [12] [nM]	IC50 [13] [nM]	IC50 [14] [nM]	efflux ratio at 5 µM [15]
O=C(NCC(F)(F)F)c1cc(-c2cnn3cc(-c4ccc(OCCN5CCCCC5)cc4)cnc23)cs1	< 10	2300	13	> 100000	> 100000	130	37	< 10	360	260	23000	57	8300	75	–
Cn1cc(-c2cnc3c(-c4csc(C(=O)NCC(F)(F)F)c4)cnn3c2)cn1	11	4200	22	> 100000	> 100000	53	42	19	780	380	> 100000	190	> 100000	92	1.4
Cn1cc(-c2cnc3c(-c4csc(C(=O)N[C@@H]5CCCC[C@@H]5N)c4)cnn3c2)cn1 (racemic)	3.2	220	6	330	> 10000	20	3	9	17	< 1	430	2.2	> 10000	52	24
Cc1sc(C(=O)N[C@@H]2[C@H](N)CCCC2(F)F)cc1-c1cnn2cc(Cl)cnc12	130	4300	140	2400	> 100000	330	8100	1900	2300	47	2500	200	> 100000	10000	2.9
